Paper PMC12795676, “Integrin α5β1 mediates the inhibitory effects of vasoinhibin on angiogenesis and vascular permeability [drawing 1]” (The Journal of Biological Chemistry, 2025)
“Also recorded” adds a separate entry of the source. Residues, ends and D or L forms follow the SMILES beside them. No end group written: not given here. *: point of attachment. Biotin = O=C1N[C@H]2[C@H](CS[C@H]2CCCCC(=O)*)N1

What was measured:
PAI-1 [1] = biological target: T1, PAI-1 (Homo sapiens, UniProt P05121); details: cited from earlier work
Excerpt: We recently identified two distinct functional motifs in the Vi molecule: the HGR and the HNLSSEM motifs. […] These discrep ...

endothelial cells [2] = details: cited from earlier work
HUVECs [3] = assay: Matrigel invasion; format: cell-based, human; details: 100 nM Vi or Vi45-51, 16 h; shITGA5 HUVEC vs WT
Experimental: As reported ([14]), HUVECs on Matrigel-coated Transwells were treated with 100 nM of Vi45-51 or Vi. After 16 h, invading cells were counted.

PAI-1-uPA complex = PAI-1-uPA complex (Homo sapiens, UniProt P00749+P05121); assay: ELISA, binding to immobilized PAI-1-uPA complex; details: for Binding to immobilized PAI-1-uPA complex: plates coated with 2 μg mL^−1
Experimental: (§1) Plates coated with 2 μg mL^−1 integrin α5β1, PAI-1, or PAI-1-uPA complex (37 °C, 10 min) were incubated with B-Vi45-51, Vi, or 100 nM ViH46A, ViR48A, or ViH46A/R48A. Competition used excess Src, alanine mutants, or THGR peptides. Detection used horseradish peroxidase antibodies and 3,3′,5,5′-tetramethylbenzidine.

PAI-1 [4] = biological target: T1, PAI-1; assay: ELISA, binding to immobilized PAI-1
Experimental: as §1

integrin α5β1 [5] = biological target: T2, integrin α5β1 (Homo sapiens, UniProt P05556+P08648); assay: ELISA, binding to immobilized integrin α5β1; details: dose-dependent, plates coated with 2 μg mL^−1
T2 construct: purchased Bio-Techne
Experimental: (§2) Vi ([49]) and its mutants were produced as reported ([14]). HUVECs were cultured as reported ([14], [50]).
as §1

HUVECs [6] = assay: Endothelial cell proliferation (EdU); format: cell-based, human; details: 24 h; for Effect of ITGA5 knockdown on inhibition of endothelial proliferation: 100 nM Vi or Vi45-51, bFGF + VEGF, shITGA5 HUVEC vs WT; for Effect of anti-α5β1 antibody on inhibition of VEGF + bFGF-induced proliferation: 100 nM Vi or Vi45-51, 20 μg mL^−1 anti-α5β1
Experimental: As reported ([14]), HUVECs were serum-starved for 8 h and treated with 100 nM Vi45-51 or Vi, bFGF + VEGF, and 20 μg mL^−1 anti-α5β1 antibody in 20% fetal bovine serum for 24 h. EdU incorporation was detected with Azide Fluor 545 (Sigma).

PAI-1 knockout mice = details: cited from earlier work
Excerpt: The HGR motif is the sole antiangiogenic determinant of Vi, as its mutation leads to the loss of Vi’s antiangiogenic function ([14]). Given that Vi binds to integrin α5β1 via its HGR motif and that knockdown of ITGA5 abolishes the effects of Vi on endothelial cell proliferation, invasion, vascular permeability, and tube formation in vitro, while an antibody against integrin α5β1 suppresses the antiangiogenic effect of Vi in the in vivo Matrigel plug assay, integrin α5β1 emerges as the binding partner mediating the antiangiogenic activity of Vi. Integrin α5β1 is critical for angiogenesis ([16]) ...

HUVECs [7] = assay: Apoptosis (Cell Death Detection ELISA); format: cell-based, human; details: 100 nM Vi, 24 h; shITGA5 HUVEC vs WT
Experimental: As reported ([13]), HUVEC were treated with 100 nM Vi or Vi45-51 for 24 h, and apoptosis was analyzed using the Cell Death Detection ELISA kit (Roche).

[8] = system: Matrigel plug vascularization (Pecam1); assay: Matrigel plug assay; format: in vivo, male C57BL/6 mice; details: mice, s.c. plugs, 100 nM Vi or Vi45-51, bFGF + VEGF, 20 μg mL^−1 anti-α5β1; 7 days; Pecam1 mRNA
Experimental: As previously described ([14], [53], [54]), 6-week-old male C57BL/6 mice were subcutaneously injected with two 0.5 ml plugs supplemented with 300 ng mL^−1 bFGF and 100 ng mL^−1 VEGF, 100 nM Vi or Vi45-51, and 20 μg mL^−1 anti-integrin α5β1 antibody. After 7 days, plugs were collected, and Pecam1, relative to GAPDH, was quantified by quantitative PCR as reported ([14]). Procedures followed institutional ethical approval (Bioethics Committee, Instituto de Neurobiología, UNAM) and were in accordance with the Guide for the Care and Use of Laboratory Animals (http://www.ncbi.nlm.nih.gov/books/NBK54050/).

HUVEC monolayers = assay: Endothelial permeability (TEER); format: cell-based, human; details: 100 nM Vi or Vi45-51 for 1 h, then 50 ng mL^−1 VEGF; TEER 120 min; n = 6
Experimental: HUVECs were grown to confluency on 0.4 μm pore Transwells, treated with 100 nM Vi45-51 or Vi for 1 h, then stimulated with 50 ng mL^−1 VEGF. Transendothelial electrical resistance was recorded for 120 min using the EVOM2 meter (World Precision Instruments).

HUVECs [9] = assay: Tube formation on Matrigel; format: cell-based, human; details: 100 nM Vi or Vi45-51, 6 h; shITGA5 HUVEC vs WT
Experimental: HUVEC tubular network formation was evaluated as reported ([14], [51]). HUVECs were seeded on Matrigel and treated with 100 nM Vi or Vi45-51 for 6 h. Micrographs were analyzed by Angiogenesis Analyzer ([52]).

endothelial cells [10] = details: cited from earlier work; remark: listed apart in the source
integrin α5 = assay: Pull-down and Western blot, integrin α5; format: binding, human (HUVEC lysates)
Experimental: (§3) To test whether Vi’s HGR motif binds integrin α5β1, human umbilical vein endothelial cells (HUVECs) were treated with a biotinylated peptide comprising residues 45 to 51 (B-Vi45-51) and subjected to pull-down and Western blot.
(§4) HUVECs treated with 500 nM B-Vi45-51, 20 ng mL^−1 bFGF, and 25 ng mL^−1 VEGF for 1 h were lysated in radioimmunoprecipitation assay, sonicated, incubated 30 min at 37 °C, and pulled down with Dynabeads Streptavidin T1 (Thermo). Eluates were analyzed by a Western blot for integrin α5, PAI-1, and uPAR.

uPAR = assay: Pull-down and Western blot, uPAR; format: binding, human (HUVEC lysates); details: HUVEC lysates; 500 nM B-Vi45-51, 1 h; Western blot
Experimental: as §3, §4

PAI-1 [11] = assay: Pull-down and Western blot, PAI-1; format: binding, human (HUVEC lysates); details: HUVEC lysates; 500 nM B-Vi45-51, 1 h; Western blot
Experimental: as §3, §4

[12] = system: HUVEC adhesion to fibronectin; assay: HUVEC adhesion to fibronectin; format: cell-based, human; details: 1 h
Experimental: HUVECs (43,000 cells cm^−2) were added and incubated at 37 °C for 1 h. Cells were washed twice and quantified by 3-(4,5-dimethylthiazol-2-yl)-2,5-diphenyltetrazolium bromide.

integrin α5β1 [13] = biological target: T2, integrin α5β1; assay: Competitive ELISA, B-Vi45-51 binding to immobilized integrin α5β1; details: excess competitor
Experimental: as §2, §1

integrin α5β1 [14] = biological target: T2, integrin α5β1; assay: Competitive ELISA, Vi binding to integrin α5β1; details: excess competitor
Experimental: as §2, §1

## HNLSSEM [HNLSSEM motif]
PAI-1 [1]
  Binding to PAI-1 (literature): mediates Vi binding to PAI-1
Endothelial cells [2]
  Apoptosis induction via uPAR-dependent mechanism: induces endothelial apoptosis through a uPAR-dependent mechanism

## vasoinhibin [Vi]
HUVECs [3]
  Effect of ITGA5 knockdown on inhibition of invasion: abolished the inhibitory effects
PAI-1-uPA complex; immobilized PAI-1-uPA complex, at least three independent experiments
  Kd: 406 nM
PAI-1-uPA complex
  Binding to immobilized PAI-1-uPA complex: bound all three
PAI-1 [4]; immobilized PAI-1, at least three independent experiments
  Kd: 528 nM
PAI-1 [4]; plates coated with 2 μg mL^−1
  Binding to immobilized PAI-1: bound all three
Integrin α5β1 [5]
  Binding to immobilized integrin α5β1: bound all three
HUVECs [6]
  Effect of ITGA5 knockdown on inhibition of endothelial proliferation: abolished the inhibitory effects
  Effect of anti-α5β1 antibody on inhibition of VEGF + bFGF-induced proliferation: prevented the inhibitory effects
PAI-1 knockout mice
  Antiangiogenic and antitumor effects in PAI-1 knockout mice: lost in PAI-1 knockout mice
HUVECs [7]
  Effect of ITGA5 knockdown on Vi-induced apoptosis: did not abolish Vi-induced apoptosis; in fact, it was even slightly increased; also recorded: did not prevent, but slightly enhanced
[8]
  Effect of anti-α5β1 antibody on inhibition of Matrigel plug vascularization: prevented the inhibitory effects
HUVEC monolayers
  Effect of ITGA5 silencing on inhibition of VEGF-induced permeability: ablated the inhibitory effect
HUVECs [9]
  Effect of ITGA5 knockdown on inhibition of tube formation: abolished the inhibitory effects
Endothelial cells [2]
  Effect of antibodies against integrin α5β1 on Vi-induced endothelial cell apoptosis: partially prevented

## cilengitide [reference compound]
Endothelial cells [10]
  Disruption of endothelial adhesion: disrupt endothelial adhesion
Endothelial cells [2]
  Induction of apoptosis (anoikis): induce apoptosis through anoikis

## CC[C@H](C)[C@H](NC(=O)[C@H](Cc1ccccc1)NC(=O)CNC(=O)[C@H](CCCNC(=N)N)NC(=O)CNC(=O)[C@H](Cc1c[nH]cn1)NC(=O)[C@@H](NC(=O)CCCC[C@@H]1SC[C@@H]2NC(=O)N[C@@H]21)[C@@H](C)O)C(=O)O [B-Vi45-51] (Biotin-THGRGFI-OH; N-terminus and C-terminus assumed)
Integrin α5; HUVEC lysates, 500 nM B-Vi45-51, 1 h, Dynabeads Streptavidin T1, Western blot, ∼145 kDa
  Pull-down of integrin α5: Integrin α5 was precipitated
Integrin α5; HUVECs, 500 nM B-Vi45-51, 20 ng mL^−1 bFGF, 25 ng mL^−1 VEGF, 1 h
  Effect of VEGF + bFGF on pull-down of integrin α5: did not affect binding
PAI-1-uPA complex
  Binding to immobilized PAI-1-uPA complex: not to PAI-1 or the PAI-1-uPA complex
uPAR
  Pull-down of uPAR: failed to pull down
Integrin α5β1 [5]
  Binding to immobilized integrin α5β1: dose-dependent binding
PAI-1 [11]
  Pull-down of PAI-1: failed to pull down

## N=C(N)NCCC[C@H](N)C(=O)NCC(=O)N[C@@H](CC(=O)O)C(=O)O [RGD, reference compound]
[12]; dose–response, fibronectin 1 μg cm^−2, 37 °C, MTT read-out, nonlinear regression (r^2 > 0.8), at least three independent experiments, read-out: IC50, inhibition of HUVEC adhesion to fibronectin
  IC50: 61.3 nM

## Ac-PHSCN-NH2 [ATN-161, PHSRN-based peptide (Ac-PHSCN-NH2), reference compound]
Endothelial cells [10]
  Disruption of endothelial adhesion: disrupt endothelial adhesion
Endothelial cells [2]
  Induction of apoptosis (anoikis): induce apoptosis through anoikis

## H46A: alanine-scanning mutant peptide, alanine substitution at H46 (TAGRGFI)
Integrin α5β1 [13]
  Inhibition of B-Vi45-51 binding to integrin α5β1: abolished inhibition

## THGRGFI [Vi45-51]
HUVECs [3]
  Effect of ITGA5 knockdown on inhibition of invasion: abolished the inhibitory effects
HUVECs [6]
  Effect of ITGA5 knockdown on inhibition of endothelial proliferation: abolished the inhibitory effects
  Effect of anti-α5β1 antibody on inhibition of VEGF + bFGF-induced proliferation: prevented the inhibitory effects
[8]
  Effect of anti-α5β1 antibody on inhibition of Matrigel plug vascularization: prevented the inhibitory effects
[12]; 1 μM, fibronectin 1 μg cm^−2, 37 °C, Fig. 4C
  HUVEC adhesion to fibronectin at 1 μM: enhanced fibronectin-mediated adhesion
[12]
  EC50: 4.55 nM
[12]; fibronectin 1 μg cm^−2, 37 °C
  HUVEC adhesion to fibronectin, dose–response: increased the adhesion in a dose-dependent manner
HUVEC monolayers
  Effect of ITGA5 silencing on inhibition of VEGF-induced permeability: ablated the inhibitory effect
Integrin α5β1 [13]
  Inhibition of B-Vi45-51 binding to integrin α5β1: inhibited B-Vi45-51 binding
HUVECs [9]
  Effect of ITGA5 knockdown on inhibition of tube formation: abolished the inhibitory effects

## THGR [HGR-containing tetrapeptide THGR]
Integrin α5β1 [14]
  Inhibition of Vi binding to integrin α5β1: blocked Vi–integrin interaction

## R48A: Vi45-51 mutated by alanine in R48 (THGAGFI)
[12]; fibronectin 1 μg cm^−2, 37 °C
  HUVEC adhesion to fibronectin, dose–response: did not
Integrin α5β1 [13]
  Inhibition of B-Vi45-51 binding to integrin α5β1: abolished inhibition
